In patent EP4786454A1, “HETEROARYL DERIVATIVE AND USE THEREOF” (priority 2023, dated 2025):

How the values were obtained:
[1] = Kinetic solubility in 50 mM phosphate buffer, LC-UV; type: physicochemical; details: room temperature, 24 hours
Experimental: The purpose of this assay was to determine the kinetic solubility of the compounds after incubation at room temperature in a 50 mM phosphate buffer solution with a pH of 2.0, 6.5, and 7.4 for 24 hours using a direct ultraviolet method.
10 µL of DMSO stock solutions of a test compound and control compound were added to a 96-well plate. 490 µL of the test medium was added to the 96-well plate, respectively. The plate was sealed, and vortexed for 2 minutes. The incubation concentration of a sample was 200 µM, wherein, DMSO accounted for 2%. The 96-well plate was placed on a shaker, and incubated at room temperature and 800 rpm for 24 hours to reach dissolution equilibrium. After the incubation, the sample was put into a centrifuge, and centrifuged at 25 °C and 4000 rpm for 10 minutes. The supernatant from the centrifuged sample was transferred to a filter plate, centrifuged at 4000 rpm for 5 minutes, and filtered to give filtrate. The concentration of the filtrate was analyzed using linear quantitative analysis with LC-UV (the sample was diluted as needed).
Data of the assay were acquired and processed using Empower software. Linear regression analysis was performed by plotting the relationship between the peak area and their concentrations in µM.

[2] = test system: P-gp (MDR1); test: Permeability evaluation, bidirectional transport (P-gp substrate); type: in vitro ADME; details: dog, MDCK-MDR1; efflux ratio Papp (B-A)/Papp (A-B); read-out: HMDR1 ER
Experimental: (§1) The purpose of this study was to evaluate and study the P-gp substrate of the compounds in MDR1 […] cells.
(§2) Transport assay: The test sample, nadolol, and metoprolol were administered at a concentration of 2.00 µM, and digoxin was administered at a concentration of 10.0 µM. The administration was performed bidirectionally (A-B and B-A directions), with two replicates for each administration concentration. The dosing solution, receiving solution, and transport buffer were pre-incubated in a 37.0 °C water bath for 30 minutes. The cell layer was rinsed twice with transport buffer. The dosing solution and receiving solution were added to the corresponding wells of the cell plate, respectively (75.0 µL to each apical well and 250 µL to each basolateral well, respectively). After the addition of samples, the cell plate was incubated in an incubator at 37.0°C, 5.0% CO2 and saturated humidity for 90 minutes. The initial dosing solution was used as the T0 sample. After 90 minutes of incubation, samples were collected from each well and labeled as A-B receiver, B-A receiver, A-B donor, and B-A donor, respectively. After the sample collection, all samples were mixed with an appropriate volume of transport buffer and stop solution. All samples were vortexed, and then centrifuged at 20.0 °C and 3220 × g for 10 minutes. An appropriate volume of the supernatant was transferred to a sample analysis plate. After sealing the plate, the samples were stored at 2.0 to 8.0 °C if not analyzed immediately. Analysis was performed using LC-MS/MS.
(§3) Cell membrane integrity assay: After the transport assay, the integrity of the MDR1-MDCK II cell layer was assayed by the Lucifer Yellow Rejection Assay. The remaining solution in the apical and basolateral wells was removed. 75.0 µL of transport buffer containing 100 µM Lucifer Yellow was added to the apical well, and 250 µL of transport buffer was added to the basolateral well, respectively. The cell plate was incubated in a cell culture incubator at 37 °C, 5% CO2 and saturated humidity for 30 minutes. Then, 20.0 µL of sample was taken from the apical end and mixed with 60.0 µL of transport buffer, and 80.0 µL of sample was taken from the basolateral end. The relative fluorescence unit (RFU) was measured at 425/528 nm (excitation/emission) using a microplate reader.
(§4) In this study, the sample analysis of the compounds and control compounds of nadolol, metoprolol, and digoxin was performed using LC-MS/MS. The retention time of the analytes and internal standards, chromatogram acquisition, and chromatogram integration were processed using the software Analyst (Sciex, Framingham, MA, USA). […] Semi-quantitative determination was performed using the ratio of the peak area of analyte to the peak area of internal standard.
(§5) The apparent permeability coefficient (Papp, cm/s), efflux ratio (ER), and recovery rate (%Solution Recovery) were calculated using the following formulas. Papp = (VR)/(Area × Time) × ([drug]receiver)/([drug]initial, donor) = (VR)/(Area × Time) × (CR)/(C0) [formula] Efflux Ratio = (Papp (B−A))/(Papp (A−B)) [formula] %Solution Recovery = (CR × VR + CD × VD)/(C0 × VD) × 100 [formula]
(§6) VR is the volume of the receiver solution (0.0750 mL for side A, and 0.250 mL for side B); Area is the surface area of the cell monolayer (0.143 cm^2); Time is the incubation time (5400 s); C0 is the initial peak area ratio of the test compound or the control compound at the donor; VD is the volume of the donor (0.0750 mL for side A, and 0.250 mL for side B); CD and CR are the peak area ratios of the test compound or the control compound at the donor and the receiver, respectively. The transmittance of Lucifer Yellow (%Lucifer Yellow) was calculated using the following formula: %Lucifer Yellow = (VBasolateral × RFUBasolateral)/(VApical × RFUApical + VBasolateral × RFUBasolateral) × 100 [formula]
(§7) RFUApical and RFUBasolateral are the relative fluorescence units of Lucifer Yellow at the apical and basolateral ends, respectively. […]

[3] = test system: MDR1-MDCK I cell line; test: as above; type: in vitro ADME; details: 2.00 µM, 90 minutes
Experimental: as §1, §2, §3, §4, §5, §6, §7

CC(C)(C)CC(=O)Nc1nc2c(F)cc(C#N)cn2c1C1=CCCC1 [Compound 3]
KSY ([1]; pH 2.0, 50 mM phosphate buffer): 3.78 µg/mL | KSY ([1]; pH 6.5, 50 mM phosphate buffer): 3.68 µg/mL | KSY ([1]; pH 7.4, 50 mM phosphate buffer): 4.43 µg/mL | efflux ratio [2]: 4.15 | HMDR1 Papp A to B [3]: 7.52 10^-6 cm/s | HMDR1 Papp B to A [3]: 31.2 10^-6 cm/s

CC(C)(C)CC(=O)Nc1nc2c(F)cc(C#N)cn2c1-c1ccc(OC(F)(F)F)cc1 [Compound 1]
efflux ratio at 90 min, 2 µM [2]: 5.04 | HMDR1 Papp A to B [3]: 3.64 10^-6 cm/s | HMDR1 Papp B to A [3]: 18.3 10^-6 cm/s

CC(C)(C)CC(=O)Nc1nc2c(F)cc(C#N)cn2c1C12CC(C1)C2 [Compound 5]
KSY ([1]; pH 2.0, 50 mM phosphate buffer): 4.46 µg/mL | KSY ([1]; pH 6.5, 50 mM phosphate buffer): 4.57 µg/mL | KSY ([1]; pH 7.4, 50 mM phosphate buffer): 4.79 µg/mL | efflux ratio [2]: 3.41 | HMDR1 Papp A to B [3]: 12.4 10^-6 cm/s | HMDR1 Papp B to A [3]: 42.4 10^-6 cm/s

CC(C)(C)CC(=O)Nc1nc2c(C(F)(F)F)cc(C#N)cn2c1C12CC(C1)C2 [Compound 6]
KSY ([1]; pH 2.0, 50 mM phosphate buffer): 21.7 µg/mL | KSY ([1]; pH 6.5, 50 mM phosphate buffer): 20.9 µg/mL | KSY ([1]; pH 7.4, 50 mM phosphate buffer): 21.4 µg/mL
